Assay results published in PubChem BioAssay AID1963984 (Molecular Pharmacology Branch, DTP, NCI, 2024).

Test system: 233499-124-R-J3-PDC spheroids with HUVEC/MSC, viability
Experiment: Anticancer human tumor 233499-124-R-J3-PDC patient-derived colon adenocarcinoma cell line growth inhibition [PI3K]
Conditions: for IC50: curve of first compound; for viability, T/C: stronger effect = lower value; active = viability on the fitted dose curve at most 10% of control; inactive = the rest
Source text: Combinatorial screen of targeted agents with the PI3K inhibitors inavolisib, alpelisib, duvelisib, and copanlisib in multi-cell type tumor spheroids
A high-throughput screen of multi-cell type tumor spheroids was designed to identify active combinations of targeted small molecules and PI3K pathway inhibitors. Complex spheroids include a stromal component modeled by human endothelial cells (HUVEC) and fibroblasts modeled by human mesenchymal stem cells (MSCs). The concentration ranges selected for each drug and investigational agent were based upon clinically achievable concentrations if the clinical Cmax of the agent was known.
Compounds. The drugs and investigational agents: inavolisib (NSC800729), alpelisib (NSC765974), duvelisib (NSC772469), copanlisib (NSC816437), ipatasertib (NSC767898), afuresertib (NSC778305), talazoparib (NSC767125), sapanisertib (NSC764658), selumetinib (NSC741078), tovorafenib (DAY101, NSC766906), vemurafenib (NSC761431), ravoxertinib (NSC781343), sotorasib (NSC818433), MRTX1133 (NSC 836407), abemaciclib (NSC 768073), palbociclib (NSC758247), venetoclax (NSC 766270), SY5609 (NSC837396), enzalutamide (NSC755605), and darolutamide (NSC825331), were obtained from the National Cancer Institute (NCI) Developmental Therapeutics Program Chemical Repository. The FDA-approved anticancer drug set is available from the NCI Developmental Therapeutics Program. […] The stock solutions were prepared in dimethyl sulfoxide (DMSO, Sigma-Aldrich, St. Louis, MO, cat. D2650) at 800-fold the tested concentration and stored at -70 degrees C prior to their use. All drugs and investigational agents were tested over a range starting from a high concentration at or near the clinical Cmax and decreasing in half-log increments. If the clinical Cmax for an agent had not been determined, the highest concentration tested was 10 microM.
Cell Culture. All cells were maintained in an incubator at 37 degrees C and 5% CO2 with 95% humidity. The PDC lines were cultured according to standard operating procedures established by the NCI PDMR (https://pdmr.cancer.gov/sops/default.htm). All PDCs were thawed and cultured in Matrigel-coated flasks prepared with a working solution of 1X Ham's F-12 nutrient mix, without supplementation (Invitrogen, Waltham, MA, cat. 11765054), 100 U/mL penicillin-streptomycin (Invitrogen, cat. 15140122), and 2.5% Matrigel (Corning Inc., Corning, NY, cat. 354248) for the first three passages. The 354836-022-R-J1-PDC, 475296-252-R-J1-PDC, and 997726-040-R-J2-PDC lines were cultured in 6A media, which includes advanced DMEM/F-12 (Thermo Fisher Scientific, cat. 12634028), 10 mM HEPES (Thermo Fisher Scientific, cat. 15630080), 1X GlutaMAX supplement (Thermo Fisher Scientific, cat. 35050061), 0.1 mg/mL primocin (InvivoGen, San Diego, CA, cat. ant-pm-2), 10% defined fetal bovine serum, heat inactivated (HyClone Laboratories Inc., Logan, UT, cat. SH30070.03HI), 50% L-WRN conditioned media (ATCC, cat. CRL-3276), 1.25 mM N-Acetyl-L-cysteine (Sigma-Aldrich, cat. A9165), 10 mM nicotinamide (Sigma-Aldrich, cat. N0636), 1X B-27 supplement (Thermo Fisher Scientific, cat. 17504044), 1X N-2 supplement (Thermo Fisher Scientific, cat. 17502048), and 10 microM Y-27632 dihydrochloride (Tocris Bioscience, Bristol, United Kingdom, cat. 1254). The 624824-186-R-J2-PDC line was cultured in 6C/Colon 1B media, which includes all 6A media components plus 50 ng/mL human EGF recombinant protein (Thermo Fisher Scientific, cat. PHG0311). […]

[1] = second compound 0.00316 µM, first compound 0.000316 µM
[2] = second compound 0.00316 µM, first compound 0.001 µM
[3] = second compound 0.00316 µM, first compound 0.00316 µM
[4] = second compound 0.00316 µM, first compound 0.01 µM
[5] = second compound 0.00316 µM, first compound 0.0316 µM
[6] = second compound 0.00316 µM, first compound 0.1 µM
[7] = second compound 0.01 µM, first compound 0.000316 µM
[8] = second compound 0.01 µM, first compound 0.001 µM
[9] = second compound 0.01 µM, first compound 0.00316 µM
[10] = second compound 0.01 µM, first compound 0.01 µM
[11] = second compound 0.01 µM, first compound 0.0316 µM
[12] = second compound 0.01 µM, first compound 0.1 µM
[13] = second compound 0.0316 µM, first compound 0.000316 µM
[14] = second compound 0.0316 µM, first compound 0.001 µM
[15] = second compound 0.0316 µM, first compound 0.00316 µM
[16] = second compound 0.0316 µM, first compound 0.01 µM
[17] = second compound 0.0316 µM, first compound 0.0316 µM
[18] = second compound 0.0316 µM, first compound 0.1 µM
[19] = second compound 0.1 µM, first compound 0.000316 µM
[20] = second compound 0.1 µM, first compound 0.001 µM
[21] = second compound 0.1 µM, first compound 0.00316 µM
[22] = second compound 0.1 µM, first compound 0.01 µM
[23] = second compound 0.1 µM, first compound 0.0316 µM
[24] = second compound 0.1 µM, first compound 0.1 µM
[25] = second compound 0.316 µM, first compound 0.000316 µM
[26] = second compound 0.316 µM, first compound 0.001 µM
[27] = second compound 0.316 µM, first compound 0.00316 µM
[28] = second compound 0.316 µM, first compound 0.01 µM
[29] = second compound 0.316 µM, first compound 0.0316 µM
[30] = second compound 0.316 µM, first compound 0.1 µM
[31] = second compound 1 µM, first compound 0.000316 µM
[32] = second compound 1 µM, first compound 0.001 µM
[33] = second compound 1 µM, first compound 0.00316 µM
[34] = second compound 1 µM, first compound 0.01 µM
[35] = second compound 1 µM, first compound 0.0316 µM
[36] = second compound 1 µM, first compound 0.1 µM
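Note: spheroids exposed to agents for seven days before readout.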
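Throughout, for viability, T/C: percent viability relative to DMSO vehicle control taken as 100%.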

CC(=O)c1c(C)c2cnc(Nc3ccc(N4CCNCC4)cn3)nc2n(C2CCCC2)c1=O + CC(Nc1ccc2c(c1)OCCn1cc(N3C(=O)OCC3C(F)F)nc1-2)C(N)=O
inactive: viability, T/C [1] 97.3% | viability, T/C [2] 83.4% | viability, T/C [3] 95.7% | viability, T/C [4] 73.7% | viability, T/C [5] 87.8% | viability, T/C [6] 74.2% | viability, T/C [7] 86.4% | viability, T/C [8] 87.5% | viability, T/C [9] 80.9% | viability, T/C [10] 89.7% | viability, T/C [11] 86% | viability, T/C [12] 70.6% | viability, T/C [13] 88.8% | viability, T/C [14] 88.4% | viability, T/C [15] 76.7% | viability, T/C [16] 89% | viability, T/C [17] 93.2% | viability, T/C [18] 71.2% | viability, T/C [19] 82.6% | viability, T/C [20] 84.4% | viability, T/C [21] 81.2% | viability, T/C [22] 101% | viability, T/C [23] 90.2% | viability, T/C [24] 65.2% | viability, T/C [25] 83% | viability, T/C [26] 79.5% | viability, T/C [27] 76.9% | viability, T/C [28] 67.2% | viability, T/C [29] 79.3% | viability, T/C [30] 59.6% | viability, T/C [31] 76.7% | viability, T/C [32] 68.7% | viability, T/C [33] 50% | viability, T/C [34] 55.3% | viability, T/C [35] 60.1% | viability, T/C [36] 48.9%
> 0.1 µM: IC50 (second compound 0.00316 µM) | IC50 (second compound 0.01 µM) | IC50 (second compound 0.0316 µM) | IC50 (second compound 0.1 µM) | IC50 (second compound 0.316 µM) | IC50 (second compound 1 µM)

CC(C)n1nc(-c2ccc3oc(N)nc3c2)c2c(N)ncnc21 + CC(Nc1ccc2c(c1)OCCn1cc(N3C(=O)OCC3C(F)F)nc1-2)C(N)=O
0.00369 µM: IC50 (second compound 1 µM)
inactive: viability, T/C [1] 73.5% | viability, T/C [2] 90.1% | viability, T/C [3] 88% | viability, T/C [4] 95.7% | viability, T/C [5] 81% | viability, T/C [6] 50.2% | viability, T/C [7] 97.8% | viability, T/C [8] 92.7% | viability, T/C [9] 105% | viability, T/C [10] 89.4% | viability, T/C [11] 78.3% | viability, T/C [12] 57.5% | viability, T/C [13] 103% | viability, T/C [14] 83% | viability, T/C [15] 85.9% | viability, T/C [16] 70.3% | viability, T/C [17] 91% | viability, T/C [18] 60.8% | viability, T/C [19] 84% | viability, T/C [20] 61.3% | viability, T/C [21] 66% | viability, T/C [22] 77% | viability, T/C [23] 66.6% | viability, T/C [24] 29.1% | viability, T/C [25] 82.7% | viability, T/C [26] 49.3% | viability, T/C [27] 73.5% | viability, T/C [28] 46.6% | viability, T/C [29] 52.8% | viability, T/C [30] 24.2% | viability, T/C [31] 49.8% | viability, T/C [32] 48.4% | viability, T/C [33] 59.2% | viability, T/C [34] 41.2% | viability, T/C [35] 26.3% | viability, T/C [36] 12.3%
0.0151 µM: IC50 (second compound 0.316 µM)
> 0.1 µM: IC50 (second compound 0.00316 µM) | IC50 (second compound 0.01 µM) | IC50 (second compound 0.0316 µM)
0.0533 µM: IC50 (second compound 0.1 µM)

CCCS(=O)(=O)Nc1ccc(F)c(C(=O)c2c[nH]c3ncc(-c4ccc(Cl)cc4)cc23)c1F + CC(Nc1ccc2c(c1)OCCn1cc(N3C(=O)OCC3C(F)F)nc1-2)C(N)=O
5.02 µM: IC50 (second compound 0.1 µM)
1.79 µM: IC50 (second compound 1 µM)
5.62 µM: IC50 (second compound 0.00316 µM)
active: viability, T/C (second compound 0.00316 µM, first compound 10 µM) 2.87% | viability, T/C (second compound 0.01 µM, first compound 10 µM) 2.03% | viability, T/C (second compound 0.0316 µM, first compound 10 µM) 1.54% | viability, T/C (second compound 0.1 µM, first compound 10 µM) 0.93% | viability, T/C (second compound 0.316 µM, first compound 10 µM) 4.16% | viability, T/C (second compound 1 µM, first compound 10 µM) 2.26%
4.72 µM: IC50 (second compound 0.0316 µM)
inactive: viability, T/C [5] 80% | viability, T/C [6] 97.9% | viability, T/C (second compound 0.00316 µM, first compound 0.316 µM) 98.6% | viability, T/C (second compound 0.00316 µM, first compound 1 µM) 105% | viability, T/C (second compound 0.00316 µM, first compound 3.16 µM) 104% | viability, T/C [11] 90.2% | viability, T/C [12] 94.5% | viability, T/C (second compound 0.01 µM, first compound 0.316 µM) 97.1% | viability, T/C (second compound 0.01 µM, first compound 1 µM) 98.2% | viability, T/C (second compound 0.01 µM, first compound 3.16 µM) 84.9% | viability, T/C [17] 77.3% | viability, T/C [18] 90.3% | viability, T/C (second compound 0.0316 µM, first compound 0.316 µM) 85.8% | viability, T/C (second compound 0.0316 µM, first compound 1 µM) 101% | viability, T/C (second compound 0.0316 µM, first compound 3.16 µM) 75.8% | viability, T/C [23] 84.8% | viability, T/C [24] 83.9% | viability, T/C (second compound 0.1 µM, first compound 0.316 µM) 88.5% | viability, T/C (second compound 0.1 µM, first compound 1 µM) 88.3% | viability, T/C (second compound 0.1 µM, first compound 3.16 µM) 82.8% | viability, T/C [29] 86.6% | viability, T/C [30] 66.6% | viability, T/C (second compound 0.316 µM, first compound 0.316 µM) 66.9% | viability, T/C (second compound 0.316 µM, first compound 1 µM) 69.2% | viability, T/C (second compound 0.316 µM, first compound 3.16 µM) 54.5% | viability, T/C [35] 73% | viability, T/C [36] 45.4% | viability, T/C (second compound 1 µM, first compound 0.316 µM) 54.9% | viability, T/C (second compound 1 µM, first compound 1 µM) 61% | viability, T/C (second compound 1 µM, first compound 3.16 µM) 41.8%
5.14 µM: IC50 (second compound 0.01 µM)
3.38 µM: IC50 (second compound 0.316 µM)
